These results are taken from patent publication US20260248784A1, “BTK Degrader and Use Thereof” (JIANGSU VCARE PHARMATECH CO., LTD., priority 2023, published 2026).

One data set relates to mino cells. Briefly: Activity test in Mino cells (CCK8 proliferation inhibition). The conditions noted are these: Homo sapiens, 72 h, 3 days, read-out: Cell inhibition IC50. Format: cell-based. As for the experimental part:
Cell culture: mino cells (culture conditions: RPMI1640 medium+15% FBS, 37° C., 5% CO2). Cell plating: The cells subcultured into the logarithmic growth phase were collected and transferred into a centrifuge tube, and centrifuged at 800 rpm for 5 min. The cells were resuspended in complete medium and counted. The cells were diluted and adjusted to a final concentration of 200000 cells/mL. The cells were then seeded into a 96-well plate with 100 μL per well. Cell administration: Each group of drug solutions was added into the 96-well plate, 100 μL per well, n=3 for each drug concentration. Meanwhile, negative wells (n=6) and blank wells (n=3) were set up. The 96-well plate was incubated in the incubator for further 3 days. CCK8 reagent was added to the 96-well plate, 20 μL per well, and then the plate was placed in the incubator for further 4 h. The absorbance of the solution was measured at a wavelength of 450 nm using an enzyme reader. The proliferation inhibition rate was calculated and the half inhibitory concentration IC50 value was calculated.

The nature of another data set: PK test in mice. It is filed as in vivo. As for the experimental part:
Mice were weighed and dosed, and about 50 μL of whole blood was collected from the orbital venous plexus at 5 min, 0.25 h, 0.5 h, 1 h, 2 h, 4 h, 6 h, 8 h, and 24 h after administration, using EDTA-K2 as anticoagulant. The blood samples were centrifuged at 4000 rpm for 10 min at 4° C., and 20 μL of the supernatant plasma sample was taken into an EP tube and immediately stored in a −80° C. refrigerator until analysis. 10 μL of the plasma sample was transferred to a 96-well plate and 250 μL of acetonitrile (containing internal standard) was added to precipitate proteins. The samples were centrifuged at 4000 rpm/min for 20 min in a 4° C. centrifuge. The supernatant was transferred and injected into LC MS/MS to detect the drug concentration. The data were processed by Thermo LC Quan software, and the standard curve was established using the internal standard method, with the theoretical standard curve concentration as the abscissa and the peak area ratio as the ordinate (test compound peak area/internal standard peak area). Sample concentrations were calculated using the standard curve. The pharmacokinetic parameters were calculated using WinNonlin 8.2 software.

Another data set deals with Mino cell xenograft. Briefly: Activity test in Mino cell xenograft model. Particulars: 30 mg/kg. Format: in vivo, NOD SCID mice.
The subject of data set [1] is REC-1 (BTK C481S) cell xenograft. In words: Activity test in REC-1 (BTK C481S) cell xenograft model. Particulars: REC-1 (BTK C481S) xenograft; for Tumor weight: Mean ± SEM. It is filed as in vivo, BALB/c-Nude mice. As for the experimental part: REC-1 (BTK C481S) cell culture (culture conditions: RPMI1640 medium+10% FBS, 37° C., 5% CO2). The cells subcultured into the logarithmic growth phase were collected and transferred into a centrifuge tube, and centrifuged at 1300 rpm for 3 min. On the day of inoculation, the cell density was adjusted to 5*10^7 cells/mL.
Cell inoculation: The inoculation site was selected at the right shoulder blade of the experimental animal, and the inoculation density was 5*10^6 cells+matrix gel/200 μL/animal.
Experimental animals: BALB/c-Nude, female, 6-8 W.
Grouped administration: When the average tumor volume reached 80-120 mm^3, the animals were randomly grouped according to tumor volume, with the coefficient of variation (CV) of tumor volumes not exceeding ⅓ of the mean volume. The day of grouping was defined as D0, and the administration began on the day of grouping. The body weight of the mice was measured before administration, and the administration was based on the body weight on that day.
Experimental observation and data collection: After cell inoculation, the effect of the tumor on the normal behavior of the animals was routinely monitored every week. Specific contents include the activity, food and water intake, weight gain or loss, eyes, fur and other abnormalities of the experimental animals. After the start of administration, the mice were weighed and dosed daily, and tumor volume was measured twice a week. The tumor volume was calculated as follows: tumor volume (mm^3)=0.52×tumor long diameter (mm)×tumor short diameter (mm)^2. At the end of the experiment, the following indicators were analyzed: tumor growth curve, mouse body weight curve, tumor weight, uniform photography of the excised tumors arranged according to groups, and calculation of tumor volume inhibition rate (TGI).
TGITV (Relative tumor volume inhibition rate) calculation formula:
[formula] • Vnt: Tumor volume of the mouse numbered n on day t; • Vn0: Tumor volume of the mouse numbered n on day 0; • RTVn: Relative tumor volume of the mouse numbered n on day t; • mean RTVtreat: RTV mean of the administration group; • mean RTVvehicle: RTV mean of the Vehicle group; • The experimental results such as tumor volume and mouse body weight of each group of animals are expressed as mean±standard error of the mean (Mean±SEM). T test was used for comparison between the two groups. One-way ANOVA was used for comparisons among three or more groups.

As for `COc1ccc(F)cc1C(=O)NCc1ccc(-c2nn(-c3ccc(N4CCN(CC5CCN(c6ccc(N7CCC(=O)NC7=O)c(C)c6)CC5)CC4)nc3)c3ncnc(N)c23)cc1` [Compound I-2, N-(4-(4-amino-1-(6-(4-((1-(4-(2,4-dioxotetrahydropyrimidin-1(2H)-yl)-3-methylphenyl)piperidin-4-yl)methyl)piperazin-1-yl)pyridin-3-yl)-1H-pyrazolo[3,4-d]pyrimidin-3-yl)benzyl)-5-fluoro-2-methoxybenzamide], the IC50 in the data set on mino cells is 14 nM. In “PK test in mice” (PO 20 mg/kg vs IV 5 mg/kg), this compound showed a Bioavialibility of 51.8%. In “PK test in mice” (mouse, IV 5 mg/kg, plasma), this compound gave an AUC(0-inf) of 44500 ± 4610 ng·h/mL, an AUC(0-t) of 42800 ± 5760 ng·h/mL, an MRT of 5.25 ± 0.17 h and a half-life of 5.35 ± 1.61 h. For the same compound, in “PK test in mice” (mouse, PO 20 mg/kg, plasma), the AUC(0-inf) is 92200 ± 33200 ng·h/mL, the AUC(0-t) was 83500 ± 22200 ng·h/mL, the peak level (Cmax) was 8950 ± 339 ng/mL and the MRT is 6.46 ± 1.4 h. For the same compound, the half-life in “PK test in mice” (mouse, PO 20 mg/kg, plasma) was 6.32 ± 3.49 h. The “TGITV (Relative tumor volume inhibition rate)” value in the data set on Mino cell xenograft amounted to 80.75%. In the data set on Mino cell xenograft (end of experiment, Mean ± SD), this compound registered a Tumor volume of 955.81 ± 343.68 mm^3. In data set [1] (15 mg/kg), the “T/C (Tweight/Cweight)” value worked out at 11.93% and the Tumor weight was found to be 0.345 ± 0.082 g. In data set [1] (30 mg/kg), the “T/C (Tweight/Cweight)” value was found to be 12.76% and the Tumor weight is 0.369 ± 0.043 g.
